Columns and labels:
[1] = test system: Puccinia recondita f, Sp. Tritici; assay: Fungicidal activity against Puccinia recondita f. sp. tritici / wheat / leaf disc preventative (brown rust); assay type: in vivo; details: foliar, 200 ppm in the applied formulation, wheat leaf segments cv. Kanzler, inoculated 1 day after application, compared to untreated, read-out: disease control
Experimental: (§1) General examples of leaf disk tests in well plates: Leaf disks or leaf segments of various plant species are cut from plants grown in a greenhouse. The cut leaf disks or segments are placed in multiwell plates (24-well format) onto water agar. The leaf disks are sprayed with a test solution before (preventative) or after (curative) inoculation. Compounds to be tested are prepared as DMSO solutions (max. 10 mg/ml) which are diluted to the appropriate concentration with 0.025% Tween20 just before spraying. The inoculated leaf disks or segments are incubated under defined conditions (temperature, relative humidity, light, etc.) according to the respective test system. A single evaluation of disease level is carried out 3 to 14 days after inoculation, depending on the pathosystem. Percent disease control relative to the untreated check leaf disks or segments is then calculated. General examples of liquid culture tests in well plates: Mycelia fragments or conidia suspensions of a fungus prepared either freshly from liquid cultures of the fungus or from cryogenic storage, are directly mixed into nutrient broth. DMSO solutions of the test compound (max. 10 mg/ml) are diluted with 0.025% Tween20 by a factor of 50 and 10 μl of this solution is pipetted into a microtiter plate (96-well format). The nutrient broth containing the fungal spores/mycelia fragments is then added to give an end concentration of the tested compound. The test plates are incubated in the dark at 24° C. and 96% relative humidity. The inhibition of fungal growth is determined photometrically after 2 to 7 days, depending on the pathosystem, and percent antifungal activity relative to the untreated check is calculated.
Example 1: Fungicidal Activity Against Puccinia recondita f, Sp. Tritici/Wheat/Leaf Disc Preventative (Brown Rust)
Wheat leaf segments cv. Kanzler were placed on agar in multiwell plates (24-well format) and sprayed with the formulated test compound diluted in water. The leaf disks were inoculated with a spore suspension of the fungus 1 day after application. The inoculated leaf segments were incubated at 19° C. and 75% relative humidity (rh) under a light regime of 12 hours light/12 hours darkness in a climate cabinet and the activity of a compound was assessed as percent disease control compared to untreated when an appropriate level of disease damage appears in untreated check leaf segments (7 to 9 days after application).
(§2) The following compounds at 200 ppm in the applied formulation give at least 80% disease control in this test when compared to untreated control leaf disks under the same conditions, which show extensive disease development.

[2] = test system: Puccinia Recondite f. Sp. Tritici; assay: Fungicidal activity against Puccinia recondita f. sp. tritici / wheat / leaf disc curative (brown rust); assay type: in vivo; details: foliar, 24 h, 200 ppm in the applied formulation, wheat leaf segments cv. Kanzler, applied 1 day after inoculation, compared to untreated, read-out: disease control
Experimental: as §1
Example 2: Fungicidal Activity Against Puccinia Recondite f. Sp. Tritici Wheat/Leaf Disc Curative (Brown Rust)
Wheat leaf segments cv. Kanzler are placed on agar in multiwell plates (24-well format). The leaf segments are then inoculated with a spore suspension of the fungus. Plates were stored in darkness at 19° C. and 75% relative humidity. The formulated test compound diluted in water was applied 1 day after inoculation. The leaf segments were incubated at 19° C. and 75% relative humidity under a light regime of 12 hours light/12 hours darkness in a climate cabinet and the activity of a compound was assessed as percent disease control compared to untreated when an appropriate level of disease damage appears in untreated check leaf segments (6 to 8 days after application).
as §2

Phakopsora pachyrhizi = assay: Fungicidal activity against Phakopsora pachyrhizi / soybean / leaf disc preventative (Asian soybean rust); assay type: in vivo; details: foliar, 200 ppm in the applied formulation, soybean leaf disks, inoculated one day after application, compared to untreated, read-out: disease control
Experimental: as §1
Example 3: Fungicidal Activity Against Phakopsora pachyrhizi/Soybean/Leaf Disc Preventative (Asian Soybean Rust)
Soybean leaf disks are placed on water agar in multiwell plates (24-well format) and sprayed with the formulated test compound diluted in water. One day after application leaf discs are inoculated by spraying a spore suspension on the lower leaf surface. After an incubation period in a climate cabinet of 24-36 hours in darkness at 20° C. and 75% rh leaf disc are kept at 20° C. with 12 h light/day and 75% rh. The activity of a compound is assessed as percent disease control compared to untreated when an appropriate level of disease damage appears in untreated check leaf disks (12 to 14 days after application).
as §2

[3] = test system: Glomerella Lagenarium (Colletotrichum Lagenarium); assay: Fungicidal activity against Glomerella lagenarium (Colletotrichum lagenarium) liquid culture / cucumber / preventative (anthracnose); assay type: cell-based; details: Colletotrichum orbiculare; 20 ppm in the applied formulation; liquid culture in PDB, growth inhibition measured photometrically 3 to 4 days after application; compared to untreated; read-out: disease control
Experimental: as §1
Example 4: Fungicidal Activity Against Glomerella Lagenarium (Colletotrichum Lagenarium) Liquid Culture/Cucumber/Preventative (Anthracnose)
Conidia of the fungus from cryogenic storage are directly mixed into nutrient broth (PDB—potato dextrose broth). After placing a (DMSO) solution of test compound into a microtiter plate (96-well format), the nutrient broth containing the fungal spores is added. The test plates are incubated at 24° C. and the inhibition of growth is measured photometrically 3 to 4 days after application.
The following compounds at 20 ppm in the applied formulation give at least 80% disease control in this test when compared to untreated control under the same conditions, which show extensive disease development.

SMILES	melting point [°C]	pest or weed control at 200 ppm [1] [%]	pest or weed control at 200 ppm [2] [%]	pest or weed control at 200 ppm (Phakopsora pachyrhizi) [%]	inhibition of growth at 20 ppm [3] [%]
O=C(NCc1ccc(-c2noc(C(F)(F)F)n2)cc1)OC1CCOCC1 [Compound 1.2, tetrahydropyran-4-yl N-[[4-[5-(trifluoromethyl)-1,2,4-oxadiazol-3-yl]phenyl]methyl]carbamate]	104 to 106	≥ 80	≥ 80	≥ 80	≥ 80
O=C(NCc1ccc(-c2noc(C(F)(F)F)n2)cc1)N1CCOCC1 [Compound 3.2, N-[[4-[5-(trifluoromethyl)-1,2,4-oxadiazol-3-yl]phenyl]methyl] morpholine-4-carboxamide]	112 to 115	≥ 80	≥ 80	≥ 80	≥ 80
O=C(NCc1ccc(-c2noc(C(F)(F)F)n2)cc1)n1ccnc1 [Compound 3.1, N-[[4-[5-(trifluoromethyl)-1,2,4-oxadiazol-3-yl]phenyl]methyl] imidazole-1-carboxamide]	97 to 102	≥ 80	≥ 80	≥ 80	≥ 80
O=C(NCc1ccc(-c2noc(C(F)(F)F)n2)cc1F)OC1CCOCC1 [Compound 1.1, tetrahydropyran-4-yl N-[[2-fluoro-4-[5-(trifluoromethyl)-1,2,4-oxadiazol-3-yl)phenyl]methyl) carbamate]	105 to 108	≥ 80	≥ 80	≥ 80	≥ 80

Continued, in another order:

melting point [°C]	SMILES	pest or weed control at 200 ppm [1] [%]	pest or weed control at 200 ppm [2] [%]	pest or weed control at 200 ppm (Phakopsora pachyrhizi) [%]	inhibition of growth at 20 ppm [3] [%]
176 to 180.1	O=C(NCc1ccc(-c2noc(C(F)(F)F)n2)cc1)NC1CC1 [Compound 2.3, 1-cyclopropyl-3-[[4-[5-(trifluoromethyl)-1,2,4-oxadiazol-3-yl]phenyl]methyl]urea]	≥ 80	≥ 80	≥ 80	≥ 80
150.1 to 152.4	O=C(NCc1ccc(-c2noc(C(F)(F)F)n2)cc1F)NC1CC1 [Compound 2.4, 1-cyclopropyl-3-[[2-fluoro-4-[5-(trifluoromethyl)-1,2,4-oxadiazol-3-yl]phenyl]methyl]urea]	≥ 80	≥ 80	≥ 80	≥ 80
108.2 to 109.8	O=C(NCc1ccc(-c2noc(C(F)(F)F)n2)cc1)OCC1CC1 [Compound 1.3, cyclopropylmethyl N-[[4-[5-(trifluoromethyl)-1,2,4-oxadiazol-3-yl]phenyl]methyl] carbamate]	≥ 80	≥ 80	≥ 80	≥ 80
169 to 173	O=C(NCc1ccc(-c2noc(C(F)(F)F)n2)c(F)c1)NC1CC1 [Compound 2.20, 1-cyclopropyl-3-[[3-fluoro-4-[5-(trifluoromethyl)-1,2,4-oxadiazol-3-yl]phenyl]methyl]urea]	≥ 80	≥ 80	≥ 80	≥ 80

Source: patent US20190364899A1, “MICROBIOCIDAL OXADIAZOLE DERIVATIVES” (SYNGENTA PARTICIPATIONS AG, priority 2015, published 2019)
